The test has as its target Vascular endothelial growth factor receptor 2 (Homo sapiens, UniProt P35968). Put plainly: Inhibition of human VEGFR2 expressed in Sf9 cells.
Sequence of Vascular endothelial growth factor receptor 2 (P35968 whole entry): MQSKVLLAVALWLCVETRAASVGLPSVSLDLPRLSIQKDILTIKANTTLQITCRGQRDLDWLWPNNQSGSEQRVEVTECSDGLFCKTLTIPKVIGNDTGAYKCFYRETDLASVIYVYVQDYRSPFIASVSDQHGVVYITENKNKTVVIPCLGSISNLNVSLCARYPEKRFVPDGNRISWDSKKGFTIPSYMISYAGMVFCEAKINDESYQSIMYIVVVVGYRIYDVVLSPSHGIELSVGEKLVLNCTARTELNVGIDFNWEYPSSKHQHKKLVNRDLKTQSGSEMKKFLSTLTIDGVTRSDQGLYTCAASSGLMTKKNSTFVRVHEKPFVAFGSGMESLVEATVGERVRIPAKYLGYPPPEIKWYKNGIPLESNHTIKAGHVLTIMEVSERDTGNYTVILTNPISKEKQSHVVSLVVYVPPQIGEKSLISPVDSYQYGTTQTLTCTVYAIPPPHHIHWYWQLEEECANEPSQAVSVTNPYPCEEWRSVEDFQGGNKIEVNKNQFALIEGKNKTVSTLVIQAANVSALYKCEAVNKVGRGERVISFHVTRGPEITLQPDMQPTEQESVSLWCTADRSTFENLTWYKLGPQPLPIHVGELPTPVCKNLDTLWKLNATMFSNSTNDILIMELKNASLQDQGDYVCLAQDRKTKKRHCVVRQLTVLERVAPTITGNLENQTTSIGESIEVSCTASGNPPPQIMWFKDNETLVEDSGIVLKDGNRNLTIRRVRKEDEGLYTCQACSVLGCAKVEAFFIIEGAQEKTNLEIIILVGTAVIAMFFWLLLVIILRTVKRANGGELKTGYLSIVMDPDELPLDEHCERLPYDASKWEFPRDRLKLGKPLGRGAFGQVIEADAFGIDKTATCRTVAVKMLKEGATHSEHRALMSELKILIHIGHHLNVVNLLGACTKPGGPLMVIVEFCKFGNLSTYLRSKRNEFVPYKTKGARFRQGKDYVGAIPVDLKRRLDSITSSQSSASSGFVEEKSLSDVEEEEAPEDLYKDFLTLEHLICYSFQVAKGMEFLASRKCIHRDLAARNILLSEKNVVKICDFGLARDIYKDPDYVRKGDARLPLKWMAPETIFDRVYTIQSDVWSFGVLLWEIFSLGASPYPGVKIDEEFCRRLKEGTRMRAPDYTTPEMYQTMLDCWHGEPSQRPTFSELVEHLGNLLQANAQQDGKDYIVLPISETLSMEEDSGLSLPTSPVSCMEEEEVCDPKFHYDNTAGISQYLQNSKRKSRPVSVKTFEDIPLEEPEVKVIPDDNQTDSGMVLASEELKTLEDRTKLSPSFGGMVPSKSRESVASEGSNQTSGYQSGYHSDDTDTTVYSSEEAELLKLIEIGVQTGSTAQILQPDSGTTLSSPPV
In turn, `COC(=O)c1ccc2c(c1)NC(=O)C2C(=NC1CCN(C)CC1)c1ccccc1` (stereo not drawn) [(Z)-3-[(1-Methylpiperidin-4-ylamino)-phenyl-methylene]-2-oxo-2,3-dihydro-1H-indole-6-carboxylic Acid Methyl Ester] displayed an IC50 above 10 µM.

Molecule `N#Cc1ccc2c(c1)NC(=O)C2C(=Nc1ccc(CN2CCCCC2)cc1)c1ccccc1` (stereo not drawn) [(Z)-6-Cyano-3-[phenyl-(4-piperidin-1-ylmethyl-phenylamino)-methylene]-indolin-2-one] displayed an IC50 of 0.248 µM.

Consider `COC(=O)c1ccc2c(c1)NC(=O)C2C(=NC1CCC(NC(=O)CN(C)C)CC1)c1ccccc1` (stereo not drawn) [(Z)-methyl 3-((4-(2-(dimethylamino)acetamido)cyclohexylamino)(phenyl)methylene)-2-oxoindoline-6-carboxylate], for which the IC50 is above 10 µM.

(Values after BindingDB's records for doi:10.1021/jm900431g (Boehringer Ingelheim Pharma, 2009).)
